These results are taken from ChEMBL document CHEMBL4311992, “Discovery of 3-(((9H-purin-6-yl)amino)methyl)-4,6-dimethylpyridin-2(1H)-one derivatives as novel tubulin polymerization inhibitors for treatment of cancer” (Eur J Med Chem, 2019).

Series [1] deals with Tyrosine-protein kinase ITK/TSK (Homo sapiens) (UniProt Q08881). Nature of the series: Inhibition of recombinant human ITK (352 to 617 residues) assessed as residual activity at 10 uM using myelin basic protein as substrate measured after 40 mins in presence of [gamma33P]ATP by scintillation counting method.
For series [2], the species on record is Mus musculus. In words: Inhibition of recombinant full-length mouse PI3K p110alpha/p85alpha H1047R mutant assessed as residual activity at 10 uM using phosphatidylinositol-4, 5-bisphosphate as substrate measured after 40 mins by HTRF assay.
In series [3] the test system is Tyrosine-protein kinase receptor UFO (Homo sapiens), P30530 [Q764R]. Nature of the series: Inhibition of recombinant human AXL Q764R mutant (473 to end residues) assessed as residual activity at 10 uM using KKSRGDYMTMQIG as substrate measured after 40 mins in presence of [gamma33P]ATP by scintillation counting method.
Series [4] addresses Serine/threonine-protein kinase PAK 5 (Homo sapiens) (UniProt Q9P286). Nature of the series: Inhibition of recombinant human PAK5 (425 to end residues) assessed as residual activity at 10 uM using RRRLSFAEPG as substrate measured after 40 mins in presence of [gamma33P]ATP by scintillation counting method.
Series [5] deals with Casein kinase I (Homo sapiens) (UniProt Q9HCP0+P78368+P48730+P49674+P48729). Nature of the series: Inhibition of CK1 (unknown origin) assessed as residual activity at 10 uM. The class given is protein assay.
Series [6] deals with DLD-1. In words: Antiproliferative activity against human DLD1 cells assessed as reduction in cell viability after 72 hrs by MTT assay. The settings on record: DLD-1, 72 h. The class given is functional, cell-based. (Tetrazolium assays rely on reduction of a dye to a coloured formazan, in cell work by metabolically active cells.)
Series [7] concerns Dual specificity protein kinase TTK (Homo sapiens), P33981 [S389A]. Nature of the series: Inhibition of recombinant full-length human TTK S389A mutant assessed as residual activity at 10 uM using MBP as substrate measured after 40 mins in presence of [gamma33P]ATP by scintillation counting method.
The target in series [8] is Activin receptor type-1 (Homo sapiens) (UniProt Q04771). In words: Inhibition of recombinant human ALK2 (142 to end residues) assessed as residual activity at 10 uM using casein as substrate measured after 40 mins in presence of [gamma33P]ATP by scintillation counting method.
The subject of series [9] is Angiopoietin-1 receptor (Homo sapiens), Q02763 [Q939H,Q940H,Y897S]. Nature of the series: Inhibition of human Tie2 Q939H/Q940H/Y897S mutant (771 to end residues) using EFPIYDFLPAKKK as substrate measured after 40 mins in presence of [gamma33P]ATP by scintillation counting method. On the set-up: scale not given: the % may be the effect or the level left.
Series [10] deals with Cyclin-dependent kinase 5/CDK5 activator 1 (Homo sapiens) (UniProt Q00535+Q15078). Nature of the series: Inhibition of recombinant full-length human CDK5/p35 assessed as residual activity at 10 uM using histone H1 as substrate measured after 40 mins in presence of [gamma33P]ATP by scintillation counting method. Type of series: protein-complex assay.
Sequence of Cyclin-dependent kinase 5/CDK5 activator 1 (Homo sapiens) (Q00535 whole entry): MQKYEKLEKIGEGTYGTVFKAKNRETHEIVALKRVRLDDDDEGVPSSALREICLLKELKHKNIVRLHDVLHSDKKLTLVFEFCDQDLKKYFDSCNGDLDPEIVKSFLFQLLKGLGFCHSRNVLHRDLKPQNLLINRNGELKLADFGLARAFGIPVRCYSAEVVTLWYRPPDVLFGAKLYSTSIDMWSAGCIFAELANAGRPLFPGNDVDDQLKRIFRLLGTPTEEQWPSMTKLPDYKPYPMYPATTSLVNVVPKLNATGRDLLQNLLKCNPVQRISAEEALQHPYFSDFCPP
Sequence of Cyclin-dependent kinase 5/CDK5 activator 1 (Homo sapiens) (Q15078 99-307 partner limits assumed): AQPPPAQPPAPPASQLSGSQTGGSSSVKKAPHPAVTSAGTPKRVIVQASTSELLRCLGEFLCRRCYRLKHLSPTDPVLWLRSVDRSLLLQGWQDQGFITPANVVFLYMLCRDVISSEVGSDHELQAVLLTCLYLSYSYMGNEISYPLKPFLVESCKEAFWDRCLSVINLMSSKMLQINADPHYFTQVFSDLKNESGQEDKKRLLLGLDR
Series [11] concerns the target Inhibitor of nuclear factor kappa-B kinase subunit beta (Homo sapiens) (UniProt O14920). Nature of the series: Inhibition of recombinant full-length human IKKbeta assessed as residual activity at 10 uM using peptide substrate measured after 40 mins in presence of [gamma33P]ATP by scintillation counting method.
Series [12] deals with Tyrosine-protein kinase BTK (Homo sapiens) (UniProt Q06187). In words: Inhibition of full-length recombinant human BTK assessed as residual activity at 10 uM using KVEKIGEGTYGVVYK as substrate measured after 40 mins in presence of [gamma33P]ATP by scintillation counting method.
Series [13] has as its system Fibroblast growth factor receptor 2 (Homo sapiens), P21802 [N549H]. Nature of the series: Inhibition of recombinant human FGFR2 N549H mutant (456 to 770 residues) assessed as residual activity at 10 uM using GGEEEEYFELVKKKK as substrate measured after 40 mins in presence of [gamma33P]ATP by scintillation counting method.
The target of series [14] is Testis-specific serine/threonine-protein kinase 3 (Homo sapiens) (UniProt Q96PN8). Nature of the series: Inhibition of recombinant full-length human TSSK3 assessed as residual activity at 10 uM using AMARAASAAALARRR as substrate measured after 40 mins in presence of [gamma33P]ATP by scintillation counting method.
Sequence of Testis-specific serine/threonine-protein kinase 3 (Homo sapiens) (Q96PN8 whole entry): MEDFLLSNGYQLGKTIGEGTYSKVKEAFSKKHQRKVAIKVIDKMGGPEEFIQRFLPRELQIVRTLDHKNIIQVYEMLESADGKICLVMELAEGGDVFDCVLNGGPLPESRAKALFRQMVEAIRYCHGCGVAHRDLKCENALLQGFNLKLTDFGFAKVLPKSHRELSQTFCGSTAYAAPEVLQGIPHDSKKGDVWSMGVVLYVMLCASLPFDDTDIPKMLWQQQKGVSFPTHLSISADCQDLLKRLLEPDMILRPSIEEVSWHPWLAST
For series [15], the target named is Ribosomal protein S6 kinase alpha-6 (Homo sapiens) (UniProt Q9UK32). Nature of the series: Inhibition of recombinant full-length human Rsk4 assessed as residual activity at 10 uM using LRRASLG as substrate measured after 40 mins in presence of [gamma33P]ATP by scintillation counting method.
The target in series [16] is PI3K p110 delta/p85 alpha (Mus musculus) (UniProt P26450+O35904). Nature of the series: Inhibition of recombinant full-length mouse PI3K p110delta/p85alpha assessed as residual activity at 10 uM using phosphatidylinositol-4, 5-bisphosphate as substrate measured after 40 mins by HTRF assay. Type of series: protein-complex assay. In general terms: TR-FRET usually uses a lanthanide donor and a delayed reading to cut background.

Series [17] has as its system HCT-116. In words: Induction of apoptosis in human HCT116 cells assessed as decrease in Bcl2 expression up to 200 nM measured after 48 hrs by Western blot analysis. The class given is functional, cell-based.
The nature of series [18]: Toxicity in nude BALB/c mouse xenografted with human HCT116 cells assessed as change in body weight at 80 mg/kg, po administered once daily for 4 weeks measured every 3 days during compound dosing. The class given is organism-based. The settings on record: in vivo. For orientation: A xenograft is tissue or cells of one species grown in another, often human tumour cells in immunodeficient mice.

For series [19], the system named is Tyrosine-protein kinase BTK (Homo sapiens), Q06187 [R28H]. Nature of the series: Inhibition of full-length recombinant human BTK R28H mutant assessed as residual activity at 10 uM using LSNLYHQGKFLQTFCGSPLYRRR as substrate measured after 40 mins in presence of [gamma33P]ATP by scintillation counting method.
In series [20] the target is Inhibitor of nuclear factor kappa-B kinase subunit alpha (Homo sapiens) (UniProt O15111). In words: Inhibition of recombinant full-length human IKKalpha ([…]) assessed as residual activity at 10 uM using peptide substrate measured after 40 mins in presence of [gamma33P]ATP by scintillation counting method.
Series [21] has as its target Mitogen-activated protein kinase kinase kinase kinase 2 (Homo sapiens) (UniProt Q12851). In words: Inhibition of recombinant human GCK assessed as residual activity at 10 uM using myelin basic protein as substrate measured after 40 mins in presence of [gamma33P]ATP by scintillation counting method.
In series [22] the target is Protein kinase C beta type (Homo sapiens) (UniProt P05771). In words: Inhibition of recombinant human PKCbeta2 (2 to end residues) assessed as residual activity at 10 uM using histone H1 as substrate measured after 40 mins in presence of [gamma33P]ATP by scintillation counting method.
Sequence of Protein kinase C beta type (Homo sapiens) (P05771 2-671 limits assumed): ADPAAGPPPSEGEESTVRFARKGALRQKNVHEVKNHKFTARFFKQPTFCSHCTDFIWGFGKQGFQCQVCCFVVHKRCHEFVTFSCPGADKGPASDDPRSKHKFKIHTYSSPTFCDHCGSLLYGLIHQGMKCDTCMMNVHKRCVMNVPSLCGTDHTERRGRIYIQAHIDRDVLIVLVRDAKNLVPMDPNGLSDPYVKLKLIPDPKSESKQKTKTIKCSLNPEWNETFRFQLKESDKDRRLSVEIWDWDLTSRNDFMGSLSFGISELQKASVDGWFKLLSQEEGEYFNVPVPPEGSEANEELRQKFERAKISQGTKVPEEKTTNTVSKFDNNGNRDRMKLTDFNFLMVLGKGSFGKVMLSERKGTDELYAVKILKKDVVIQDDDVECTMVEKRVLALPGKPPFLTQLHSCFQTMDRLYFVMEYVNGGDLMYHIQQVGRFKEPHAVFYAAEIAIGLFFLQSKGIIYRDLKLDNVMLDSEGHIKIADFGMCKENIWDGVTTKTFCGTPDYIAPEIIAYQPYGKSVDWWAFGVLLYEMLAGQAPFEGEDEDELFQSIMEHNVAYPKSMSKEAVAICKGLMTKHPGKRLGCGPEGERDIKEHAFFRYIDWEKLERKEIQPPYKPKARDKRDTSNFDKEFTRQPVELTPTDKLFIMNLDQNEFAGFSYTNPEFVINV
Series [23] deals with Dual specificity tyrosine-phosphorylation-regulated kinase 1B (Homo sapiens) (UniProt Q9Y463). Nature of the series: Inhibition of recombinant full-length human DYRK1B assessed as residual activity at 10 uM using RRRFRPASPLRGPPK as substrate measured after 40 mins in presence of [gamma33P]ATP by scintillation counting method.
Sequence of Dual specificity tyrosine-phosphorylation-regulated kinase 1B (Homo sapiens) (Q9Y463 whole entry, looked up): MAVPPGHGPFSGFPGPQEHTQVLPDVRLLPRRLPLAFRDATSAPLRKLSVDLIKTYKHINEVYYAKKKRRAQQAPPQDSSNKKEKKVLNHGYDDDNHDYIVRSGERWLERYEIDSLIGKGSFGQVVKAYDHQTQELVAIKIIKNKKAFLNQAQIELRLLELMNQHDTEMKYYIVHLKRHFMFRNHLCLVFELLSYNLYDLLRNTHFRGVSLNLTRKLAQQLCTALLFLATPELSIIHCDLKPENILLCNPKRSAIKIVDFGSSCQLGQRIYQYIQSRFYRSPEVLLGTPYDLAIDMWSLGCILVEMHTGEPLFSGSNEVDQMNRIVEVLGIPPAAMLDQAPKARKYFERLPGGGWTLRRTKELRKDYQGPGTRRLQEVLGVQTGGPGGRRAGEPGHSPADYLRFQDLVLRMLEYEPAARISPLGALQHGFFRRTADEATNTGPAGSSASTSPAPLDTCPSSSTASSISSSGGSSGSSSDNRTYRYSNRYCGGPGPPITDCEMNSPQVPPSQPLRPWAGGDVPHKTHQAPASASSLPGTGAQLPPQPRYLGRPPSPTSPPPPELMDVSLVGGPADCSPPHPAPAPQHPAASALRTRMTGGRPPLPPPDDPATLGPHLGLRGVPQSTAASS
For series [24], the target named is Serine/threonine-protein kinase MARK2 (Homo sapiens) (UniProt Q7KZI7). Nature of the series: Inhibition of recombinant full-length human PAR1Balpha assessed as residual activity at 10 uM using KKKVSRSGLYRSPSMPENLNRPR as substrate measured after 40 mins in presence of [gamma33P]ATP by scintillation counting method.
Sequence of Serine/threonine-protein kinase MARK2 (Homo sapiens) (Q7KZI7 whole entry): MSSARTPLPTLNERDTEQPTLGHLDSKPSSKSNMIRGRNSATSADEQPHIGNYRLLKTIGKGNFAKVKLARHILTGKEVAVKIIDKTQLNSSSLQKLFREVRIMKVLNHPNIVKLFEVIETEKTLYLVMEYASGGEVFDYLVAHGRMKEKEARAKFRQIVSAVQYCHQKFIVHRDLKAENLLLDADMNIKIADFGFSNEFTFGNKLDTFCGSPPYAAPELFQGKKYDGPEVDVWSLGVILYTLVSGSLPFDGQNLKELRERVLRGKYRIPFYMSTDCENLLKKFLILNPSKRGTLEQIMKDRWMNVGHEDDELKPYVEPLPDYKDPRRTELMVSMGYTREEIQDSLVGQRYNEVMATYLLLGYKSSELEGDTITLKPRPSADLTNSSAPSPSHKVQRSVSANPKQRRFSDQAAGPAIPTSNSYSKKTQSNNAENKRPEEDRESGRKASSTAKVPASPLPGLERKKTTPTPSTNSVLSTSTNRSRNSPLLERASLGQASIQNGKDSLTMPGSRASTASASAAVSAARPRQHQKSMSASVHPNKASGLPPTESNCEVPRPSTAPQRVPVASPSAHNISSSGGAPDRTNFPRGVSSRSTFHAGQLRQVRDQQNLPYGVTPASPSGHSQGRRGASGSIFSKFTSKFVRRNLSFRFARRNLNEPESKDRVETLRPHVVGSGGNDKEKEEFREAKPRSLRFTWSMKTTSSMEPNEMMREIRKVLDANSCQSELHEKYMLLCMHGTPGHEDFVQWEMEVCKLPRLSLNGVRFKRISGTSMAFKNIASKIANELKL

Active and inactive are the calls of the source. No cut-off for these calls is given here.

Sequence of Angiopoietin-1 receptor (Homo sapiens), Q02763 [Q939H,Q940H,Y897S] (Q02763 whole entry Y897S/Q939H/Q940H): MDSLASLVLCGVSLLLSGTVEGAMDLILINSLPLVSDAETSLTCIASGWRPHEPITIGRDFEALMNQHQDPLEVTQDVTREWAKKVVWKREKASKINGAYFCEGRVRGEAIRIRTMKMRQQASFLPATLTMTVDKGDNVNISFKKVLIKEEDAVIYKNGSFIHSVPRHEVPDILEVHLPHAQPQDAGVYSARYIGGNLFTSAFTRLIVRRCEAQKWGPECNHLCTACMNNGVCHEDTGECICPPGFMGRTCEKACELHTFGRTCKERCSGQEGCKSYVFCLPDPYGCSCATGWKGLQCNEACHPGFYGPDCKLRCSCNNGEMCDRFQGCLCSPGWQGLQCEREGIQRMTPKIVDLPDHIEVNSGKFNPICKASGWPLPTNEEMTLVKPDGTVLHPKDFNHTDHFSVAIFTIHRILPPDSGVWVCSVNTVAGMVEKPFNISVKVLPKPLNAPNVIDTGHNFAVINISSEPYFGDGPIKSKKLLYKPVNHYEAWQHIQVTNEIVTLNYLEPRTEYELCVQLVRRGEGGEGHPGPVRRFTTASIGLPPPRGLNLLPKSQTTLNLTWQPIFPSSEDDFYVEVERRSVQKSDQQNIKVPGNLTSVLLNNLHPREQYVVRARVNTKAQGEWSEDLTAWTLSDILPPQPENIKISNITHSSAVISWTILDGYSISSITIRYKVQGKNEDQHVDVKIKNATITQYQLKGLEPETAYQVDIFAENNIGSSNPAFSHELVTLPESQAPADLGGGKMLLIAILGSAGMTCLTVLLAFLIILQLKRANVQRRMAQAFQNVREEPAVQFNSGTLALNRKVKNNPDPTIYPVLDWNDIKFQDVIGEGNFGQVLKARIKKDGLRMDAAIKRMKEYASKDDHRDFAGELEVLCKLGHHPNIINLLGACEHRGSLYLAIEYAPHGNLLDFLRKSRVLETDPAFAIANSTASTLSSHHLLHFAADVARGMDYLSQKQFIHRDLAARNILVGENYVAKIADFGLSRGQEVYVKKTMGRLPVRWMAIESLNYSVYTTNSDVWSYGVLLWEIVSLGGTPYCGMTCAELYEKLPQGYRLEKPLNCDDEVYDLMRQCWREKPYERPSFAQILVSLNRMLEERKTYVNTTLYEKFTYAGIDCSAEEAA
Sequence of Serine/threonine-protein kinase PAK 5 (Homo sapiens) (Q9P286 whole entry, looked up): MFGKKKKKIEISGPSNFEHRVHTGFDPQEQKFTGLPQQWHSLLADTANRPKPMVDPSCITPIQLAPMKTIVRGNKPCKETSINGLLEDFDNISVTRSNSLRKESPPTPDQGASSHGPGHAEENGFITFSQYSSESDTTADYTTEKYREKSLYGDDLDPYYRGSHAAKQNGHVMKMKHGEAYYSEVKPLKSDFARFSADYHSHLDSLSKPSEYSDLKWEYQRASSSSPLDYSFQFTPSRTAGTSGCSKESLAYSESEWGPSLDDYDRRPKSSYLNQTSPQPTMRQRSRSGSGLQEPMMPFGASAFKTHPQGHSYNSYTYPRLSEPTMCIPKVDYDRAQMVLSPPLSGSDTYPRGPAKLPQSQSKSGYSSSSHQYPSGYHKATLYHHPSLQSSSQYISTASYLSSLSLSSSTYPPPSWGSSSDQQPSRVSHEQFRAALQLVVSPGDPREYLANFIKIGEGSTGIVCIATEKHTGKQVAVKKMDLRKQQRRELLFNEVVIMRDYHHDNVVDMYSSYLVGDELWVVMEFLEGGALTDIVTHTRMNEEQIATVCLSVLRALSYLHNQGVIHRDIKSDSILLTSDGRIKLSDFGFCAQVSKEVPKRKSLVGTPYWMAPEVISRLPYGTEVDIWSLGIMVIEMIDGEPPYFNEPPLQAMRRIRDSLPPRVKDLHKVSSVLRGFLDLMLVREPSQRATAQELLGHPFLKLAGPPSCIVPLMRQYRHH

In the case of `Cc1cc(C)c(CNc2nc(Cl)nc3c2ncn3C2CCCC2)c(=O)[nH]1`, the Activity in series [1] was 63 to 75%; in series [2], 99%; in [3] it was 107%; in series [4] it was 110%; in series [5], 106%; in series [7], 99.5%. In addition, the Activity is 106% in series [8]; 114% in series [9]; 108% in [10]; 102% in [11]; 85% in series [12]; 88% in [13]. Also, the Activity in series [14] is 124%; in [15], 98.5%; in [16], 100%; in series [18], “Non-Toxic”; in series [19] it was 98%; in [20], 88.5%. Also, the Activity in series [21] amounted to 100%; in series [22], 106%; in series [23] it was 100%; in series [24], 95.5%. In addition, the IC50 (in general, the concentration that inhibits the measured activity by half) in series [6] came to 0.136 µM. Also, the outcome in series [17] was Active.
